Assay results: patent publication US20040242671A1, “Use of 2-oxo-1-pyrrolidine derivatives for the preparation of a drug” (priority 2001, published 2004)

Assays:
[1] = A. J. GOWER et al., Eur. J. Pharmacol., 222, (1992), 193-203; cited from earlier work
[2] = tested on: MPTP-lesioned marmoset model of Parkinson's disease; experiment: L-DOPA-induced dyskinesia score, MPTP-lesioned marmoset (Example 1); format: in vivo, marmosets (Callithrix jacchus); details: for Dyskinesia: first hour post drug administration, vs L-DOPA + vehicle
Procedure: (§1) This study was designed to investigate whether levetiracetam has anti-dyskinetic activity in the 1-methyl-4-phenyl-1,2,3,6-tetrahydropyridine (MPTP)-lesioned marmoset model of Parkinson's disease. The effect of levetiracetam on L-3,4-dihydroxyphenylalanine (L-DOPA)-induced dyskinesias and alleviation of parkinsonism symptoms was investigated.
(§2) The study was performed on seven adult marmosets (Callithrix jacchus) bred in a closed colony. The marmosets were rendered parkinsonian by subcutaneous injection of 2 mg/kg MPTP for 5 consecutive days. The marmosets were allowed to recover for 18 weeks until their parkinsonism became stable. The degree of activity and disability before and after MPTP treatment was assessed using a combination of scales that measure locomotor activity, mobility, bradykinesia and posture. Animals were treated with L-DOPA (12.5 mg/kg b.i.d. for 6 weeks) to prime them to elicit dyskinesia.
(§3) All drugs were administered orally in a volume of 5 ml/kg via a syringe in the animal's home cage. The animals were immediately transferred to the experimental cage (60 cm×55 cm×75 cm, with the perch 25 cm from floor of cage) for behavioural assessment. Vehicle was apple juice in all cases.
3)Dyskinesia—non-parametric measures based on the following scale Dyskinesia score: 0=Absent, 1=Mild, fleeting, 2=Moderate, not interfering with normal activity, 3=Marked, at times interfering with normal activity, 4=Severe, continuous, replacing normal activity.
(§4) Behaviour was assessed for 6 hours post drug administration. Behavioural test 1, activity, was assessed every 5 minutes for 6 hours post drug administration. Behavioural tests 2 and 3, parkinsonian disability and dyskinesia, respectively, were assessed for 10 minutes every 30 minutes over the course of 6 hours, by post hoc analysis of video-recordings by an observer blinded to the treatment. The score given in each 10 minutes time period represents the maximum score achieved during that time period.
Table 1 outlines the randomised treatment schedule i.e. three doses of levetiracetam drug in combination with a single dose of L-DOPA. The actions of each of these three combination therapies were compared with that of L-DOPA plus the appropriate vehicle. Thus, a total of four treatments were given.

[3] = tested on: MPTP-lesioned marmoset model of Parkinson's disease; experiment: Parkinsonian disability score with L-DOPA, MPTP-lesioned marmoset (Example 2); format: in vivo, marmosets (Callithrix jacchus); details: for Disability scores: compound A 1, 3, 10 and 30 mg/kg + L-DOPA, p>0.05
Procedure: (§5) This study was designed to investigate whether the compound ((2S)-2-[(4S)-4-(2,2-difluorovinyl)-2-oxopyrrolidinyl]butanamide) (named compound A) has anti-dyskinetic activity in the 1-methyl-4-phenyl-1,2,3,6-tetrahydropyridine (MPTP)—lesioned marmoset model of Parkinson's disease. The effect of the compound A on L-3,4-dihydroxyphenylalanine (L-DOPA)-induced dyskinesias and alleviation of anti parkinsonism symptoms was investigated.
as §2, with “nine” for “seven”, “(13.9+/−0.8” for “(12.5”
as §3
(§6) 2) Parkinsonian disability—non-parametric measures based on the following scales
(§7) a) Range of movement score: 0=no movement, 1=movement of head on the floor of the cage, 2=movement of limbs, but no locomotion, on the floor of the cage, 3=movement of head or trunk on wall of cage or perch, 4=movement of limbs, but no locomotion, on wall of cage or perch, 5=walking around floor of cage or eating from hopper on floor, 6=hopping on floor of cage, 7=climbing onto wall of cage or perch, 8=climbing up and down the walls of the cage or along perch, 9=running, jumping, climbing between cage walls/perch/roof, uses limbs through a wide range of motion and activity.
(§8) b) Bradykinesia score: 0=normal speed and initiation of movement, 1=mild slowing of movement, 2=moderate slowing, difficulty initiating and maintaining movement, marked freezing, 3=akinetic, unable to move, with prolonged freezing episodes
(§9) c) Postural abnormality score: 0=normal, upright, holds head up, normal balance, 1=abnormal, crouched, face down, may lose balance. […]
as §4, with “The score given in each 10 minutes time period represents the maximum score achieved during that time period.” left out

[4] = tested on: MPTP-lesioned marmoset model of Parkinson's disease; experiment: L-DOPA-induced dyskinesia score, MPTP-lesioned marmoset (Example 2); format: in vivo, marmosets (Callithrix jacchus); details: for Dyskinesia: first hour post drug administration, vs L-DOPA + vehicle, p<0.05
Procedure: as §5
as §2, with “nine” for “seven”, “(13.9+/−0.8” for “(12.5”
as §3
3)Dyskinesia—non-parametric measures based on the following scale
Dyskinesia score: 0=Absent, 1=Mild, fleeting, 2=Moderate, not interfering with normal activity, 3=Marked, at times interfering with normal activity, 4=Severe, continuous, replacing normal activity.
as §4
Four doses of compound A drug (1 mg/kg, 3 mg/kg, 10 mg/kg and 30 mg/kg) in combination with a single dose of L-DOPA were tested using a randomized treatment schedule. The actions of each of these four combination therapies were compared with that of L-DOPA plus the appropriate vehicle. Thus, a total of five treatments were given.

[5] = tested on: MPTP-lesioned marmoset model of Parkinson's disease; experiment: Parkinsonian disability score with L-DOPA, MPTP-lesioned marmoset (Example 1); format: in vivo, marmosets (Callithrix jacchus); details: for Disability scores: levetiracetam 13, 30 and 60 mg/kg + L-DOPA 12 mg/kg, p>0.05
Procedure: as §1, §2, §3, §6, §7, §8, §9
as §4, with “The score given in each 10 minutes time period represents the maximum score achieved during that time period.” left out

[6] = tested on: MPTP-lesioned marmoset model of Parkinson's disease; experiment: Activity and on-time with Ropinirole, MPTP-lesioned marmoset (Example 3); format: in vivo, marmosets (Callithrix jacchus); details: for "on-time" / Activity: P<0.01; for Enhancement of "on-time": six hour experiment
Procedure: (§10) This study was designed to investigate whether Levetiracetam has a potential as an adjunctive anti-parkinsonian agent to dopamine replacement therapy in the 1-methyl-4-phenyl-1,2,3,6-tetrahydropyridine (MPTP)-lesioned marmoset model of Parkinson's disease. The effect of Levetiracetam on Ropinirole alleviation of parkinsonism symptoms was investigated. The study was performed on six adult marmosets (Callithrix jacchus; 4 female, 2 male). The marmosets were rendered parkinsonian by subcutaneous injection of 2 mg/kg MPTP for 5 consecutive days. The marmosets were allowed to recover for 18 weeks until their parkinsonism was stable. The degree of activity and disability before and after MPTP treatment were assessed using a combination of scales that measure locomotor activity, mobility, bradykinesia and posture. Animals were treated with L-DOPA 12 mg/kg b.i.d. for 6 weeks. After this time, animals were used for assessment of potential symptomatic antiparkinsonian therapy. All drugs were administered orally in a volume of 5 ml/kg via a syringe in the animal's home cage. The animals were immediately transferred to an experimental cage (60 cm×55 cm×75 cm, with the perch 25 cm from floor of cage) for behavioural assessment. Vehicle was apple juice in all cases. The doses were 3.75 mg/kg of Ropinirole in combination with Levetiracetam at 13, 30 and 60 mg/kg. Behaviour was assessed for 6 hours post drug administration. 1) Activity—a quantitative assessment using computer-based activity monitors was obtained every 5 minutes for the duration of the experiment. Behavioural test 1 (activity) was assessed every 5 minutes for 6 hours post drug administration. Behavioural tests 2 (parkinsonian disability) was assessed for 10 minutes every 30 minutes over the course of 6 hours, by post hoc analysis of video-recordings by an observer blinded to the treatment. The score given/achieved in each 10 minute time period was presented. Cumulated data for parkinsonian disability, range of movement, bradykinesia and postural abnormalities were analysed with a non-parametric repeated measures one-way ANOVA (Friedman's test) followed by Dunn's multiple comparison test (Graphpad Prism version 3).

[7] = tested on: MPTP-lesioned marmoset model of Parkinson's disease; experiment: Parkinsonian disability with Ropinirole, MPTP-lesioned marmoset (Example 3); format: in vivo, marmosets (Callithrix jacchus); details: for Parkinsonian disability: Levetiracetam 13 mg/kg + Ropinirole 3.75 mg/kg
Procedure: as §10, with “1) Activity—a quantitative assessment using computer-based activity monitors was obtained every 5 minutes for the duration of the experiment.” left out, “presented.” for “presented. Cumulated data for parkinsonian disability, range of movement, bradykinesia and postural abnormalities were analysed with a non-parametric repeated measures one-way ANOVA (Friedman's test) followed by Dunn's multiple comparison test (Graphpad Prism version 3).”

[8] = L-DOPA alone (13.9+/−0.8 mg/kg), oral
[9] = any time-point after one hour post drug administration
[10] = first hour post drug administration
[11] = Levetiracetam 13 mg/kg + Ropinirole 3.75 mg/kg
[12] = Levetiracetam 30 mg/kg + Ropinirole 3.75 mg/kg

In the case of `CC[C@H](C(N)=O)N1CCCC1=O` [(R)-(+)-α-ethyl-2-oxo-1-pyrrolidine-acetamide], the “Activity in the treatment of epilepsy” value [1] is given as “completely devoid of activity”.

In the case of `N[C@@H](Cc1ccc(O)c(O)c1)C(=O)O` [L-DOPA, L-3,4-dihydroxyphenylalanine], the “Dyskinesia accompanying alleviation of parkinsonian symptoms” value ([2]; L-DOPA 12 mg/kg alone, oral) is reported as “severe dyskinesia”, the “Effect on parkinsonian symptoms” value [3, 8] is reported as “reversed parkinsonian symptoms” and the “Dyskinesia accompanying alleviation of parkinsonian symptoms” value [4, 8] is reported as “accompanied by dyskinesia”. The “Effect on parkinsonian symptoms” value ([5]; L-DOPA 12 mg/kg alone, oral) was “reversed parkinsonian symptoms”.

With `CC[C@@H](C(N)=O)N1C[C@H](C=C(F)F)CC1=O` [compound A, (2S)-2-[(4S)-4-(2,2-difluorovinyl)-2-oxopyrrolidinyl]butanamide] the Disability scores [3, 9] was “no significant differences”, the Disability scores [3, 10] was “no significant differences” and the “Reversal of parkinsonian symptoms at peak effect, compared with L-DOPA monotherapy” value ([3]; compound A 1 to 30 mg/kg + L-DOPA 13.9+/−0.8 mg/kg) was “same magnitude”. For the same compound, the Dyskinesia ([4]; compound A 10 mg/kg + L-DOPA 13.9+/−0.8 mg/kg oral) was “significantly reduced”, the Dyskinesia ([4]; compound A 30 mg/kg + L-DOPA 13.9+/−0.8 mg/kg oral) was “significantly reduced” and the Dyskinesia scores ([4]; compound A 1, 3, 10 and 30 mg/kg + L-DOPA, any time-point after one hour post drug administration, p>0.05) was “no significant differences”.

In the case of `CC[C@@H](C(N)=O)N1CCCC1=O` [levetiracetam, (S)-α-ethyl-2-oxo-1-pyrrolidineacetamide], the Dyskinesia ([2]; levetiracetam 13 mg/kg + L-DOPA 12 mg/kg oral, p<0.01) is reported as “significantly reduced”, the Dyskinesia ([2]; levetiracetam 30 mg/kg + L-DOPA 12 mg/kg oral, p<0.05) is reported as “significantly reduced” and the Dyskinesia ([2]; levetiracetam 60 mg/kg + L-DOPA 12 mg/kg oral, p<0.01) is reported as “significantly reduced”. For the same compound, the Dyskinesia scores ([2]; levetiracetam 13, 30 and 60 mg/kg + L-DOPA 12 mg/kg, any time-point after one hour post drug administration, p>0.05) was “no significant differences”, the “"on-time"” value [6, 11] was “significantly increased” and the Activity [6, 11] was “significantly increased”. For the same compound, the “Enhancement of "on-time"” value [6, 11] was “approximately 82%”, the “"on-time"” value [6, 12] was “significantly increased” and the Activity [6, 12] was “significantly increased”. The “Enhancement of "on-time"” value [6, 12] was about 69%, the “Potentiation of the alleviation of parkinsonism by Ropinirole” value (shortened to “Potentiation”) ([7]; Levetiracetam 13 mg/kg + Ropinirole 3.75 mg/kg oral) was “significantly potentiated” and the Parkinsonian disability ([7]; during 3-4 hour time period, P<0.05) was “significantly reduced”. The Parkinsonian disability ([7]; over the experiment as a whole, P<0.05) was “significantly reduced”, the “Potentiation” value ([7]; Levetiracetam 30 mg/kg + Ropinirole 3.75 mg/kg oral) was “significantly potentiated” and the Range of movement ([7]; Levetiracetam 30 mg/kg + Ropinirole 3.75 mg/kg, during the 0-1 hour time period, P<0.05) was “significantly increased”. For the same compound, the “Potentiation” value ([7]; Levetiracetam 60 mg/kg + Ropinirole 3.75 mg/kg oral) was “not”, the Disability scores [5, 9] was “no significant differences” and the Disability scores [5, 10] was “no significant differences”. For the same compound, the “Reversal of parkinsonian symptoms at peak effect, compared with L-DOPA monotherapy” value ([5]; levetiracetam 13 to 60 mg/kg + L-DOPA 12 mg/kg) was “same magnitude”.
